As a reminder, the melting point is the temperature of the solid-liquid transition. In general, Ki refers to a dissociation constant, usually derived from enzyme kinetics or from competition with a known ligand. A high value points to weaker binding.

This is an account of results in patent US20050096327A1, “Novel norepinephrine reuptake inhibitors for the treatment of central nervous system disorders” (priority 2003, published 2005).

The target in data set [1] is T1, human norepinephrine transporter (Homo sapiens, UniProt P23975).
T1 construct: host or cells: HEK-293
T1 sequence (P23975 whole entry): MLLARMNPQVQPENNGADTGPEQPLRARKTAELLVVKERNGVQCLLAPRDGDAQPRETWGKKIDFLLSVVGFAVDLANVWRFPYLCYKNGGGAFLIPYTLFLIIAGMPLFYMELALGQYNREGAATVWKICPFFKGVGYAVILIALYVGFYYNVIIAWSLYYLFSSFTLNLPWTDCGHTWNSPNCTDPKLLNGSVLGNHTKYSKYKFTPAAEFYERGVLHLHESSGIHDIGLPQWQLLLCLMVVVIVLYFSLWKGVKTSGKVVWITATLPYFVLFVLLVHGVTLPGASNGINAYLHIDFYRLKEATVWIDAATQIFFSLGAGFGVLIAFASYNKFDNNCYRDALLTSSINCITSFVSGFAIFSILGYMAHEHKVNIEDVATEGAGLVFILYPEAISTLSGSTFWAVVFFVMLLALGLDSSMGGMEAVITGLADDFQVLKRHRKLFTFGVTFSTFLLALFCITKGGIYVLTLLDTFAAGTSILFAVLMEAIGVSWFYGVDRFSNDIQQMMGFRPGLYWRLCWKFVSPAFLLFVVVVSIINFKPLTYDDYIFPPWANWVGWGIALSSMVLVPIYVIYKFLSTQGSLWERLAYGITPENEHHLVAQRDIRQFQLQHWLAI
Kind of data set: hNET receptor binding ([125I]-RTI-55, membranes of transfected HEK-293 cells). Particulars: 50 pM [125I]-RTI-55, 90 min room temperature; IC50 converted by Cheng-Prusoff. Summed up:
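Competition binding on membranes from HEK-293 cells transfected with human NET, using 50 pM [125I]-RTI-55 in Krebs-HEPES pH 7.4, drug 10^−5 to 10^−12 M in duplicate, 90 min at room temperature, filtration. Nonspecific binding defined with 10 μM desipramine; IC50 converted to Ki by Cheng-Prusoff.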

The target of data set [2] is T2, human serotonin transporter (Homo sapiens, UniProt P31645).
T2 construct: host or cells: HEK-293
T2 sequence (P31645 whole entry): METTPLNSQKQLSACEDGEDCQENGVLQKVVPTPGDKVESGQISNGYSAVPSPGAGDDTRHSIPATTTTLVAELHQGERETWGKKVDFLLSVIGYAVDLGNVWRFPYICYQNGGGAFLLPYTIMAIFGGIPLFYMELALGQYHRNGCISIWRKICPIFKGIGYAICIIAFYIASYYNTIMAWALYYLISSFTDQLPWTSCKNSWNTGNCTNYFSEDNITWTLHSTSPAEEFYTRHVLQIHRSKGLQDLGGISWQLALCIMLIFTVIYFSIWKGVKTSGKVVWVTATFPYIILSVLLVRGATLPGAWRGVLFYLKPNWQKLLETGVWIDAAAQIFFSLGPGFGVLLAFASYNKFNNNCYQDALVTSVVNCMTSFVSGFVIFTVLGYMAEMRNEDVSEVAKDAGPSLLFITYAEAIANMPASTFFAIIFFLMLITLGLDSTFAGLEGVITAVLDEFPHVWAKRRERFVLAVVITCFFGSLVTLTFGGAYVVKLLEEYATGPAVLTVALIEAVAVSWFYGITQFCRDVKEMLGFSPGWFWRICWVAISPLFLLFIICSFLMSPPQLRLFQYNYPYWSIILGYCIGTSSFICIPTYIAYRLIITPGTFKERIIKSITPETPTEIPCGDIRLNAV
Kind of data set: hSERT receptor binding ([125I]-RTI-55, membranes of transfected HEK-293 cells). The note with it: 50 pM [125I]-RTI-55, 90 min room temperature; IC50 converted by Cheng-Prusoff. As to the method: Cell pastes of HEK-293 cells transfected with the human serotonin transporter were supplied by the Pfizer Ann Arbor Protein Expression and Production Group. Pellets were resuspended in 400 to 700 mL of Krebs-HEPES assay buffer (25 mM HEPES, 122 mM NaCl, 3 mM KCl, 1.2 mM MgSO4, 1.3 mM CaCl2, and 11 mM glucose, pH 7.4) with a Polytron homogenizer at Setting 7 for 30 seconds. Aliquots of membranes (˜2.5 mg/mL protein) were stored in liquid nitrogen until used.
Assays were set up in FlashPlates pre-coated with 0.1% PEI in a total volume of 250 μL containing: drug (10^−5M to 10^−12M), cell membranes, and 50 pM [^125I]-RTI-55 (Perkin Elmer, NEX-272; specific activity 2200 Ci/mmol). The reaction was incubated and gently agitated for 90 minutes at room temperature, and terminated by removal of assay volume. Plates were covered, and bound [^125I]-RTI-55 was determined using a Wallac Trilux Beta Plate Counter. Test compounds were run in duplicate, and specific binding was defined as the difference between binding in the presence and absence of 10 μM citalopram.
Excel and GraphPad Prism software were used for data calculation and analysis. IC50 values were converted to Ki values using the Cheng-Prusoff equation. The Ki values for the hSERT are reported below in Table 1.

Structures can show the parent of a compound that is named as a salt.

For `Fc1cccc(F)c1-c1nc(N2CCNCC2)nc2ccccc12` (as salt: hydrochloride) [Example 29, 4-(2,6-Difluoro-phenyl)-2-piperazin-4-yl-quinazoline hydrochloride], the melting point was 295 to 297 °C. As to `CN[C@H]1CCN(c2nc(-c3ccccc3F)c3ccccc3n2)C1` (as salt: hydrochloride) [Example 35, (S)-(+)-1-[4-(2-Fluoro-phenyl)-quinazolin-2-yl]-pyrrolidin-3-yl}-methyl-amine hydrochloride], the melting point lay in the range of 257 to 258 °C. Take `C[C@@H]1CN(c2nc(-c3ccccc3)c3ccccc3n2)CCN1` (as salt: salt) [Example 31, (R)-(+)-2-(3-Methyl-piperazin-1-yl)-4-phenyl-quinazoline]: the melting point lay within 241 to 242 °C.

`Fc1ccc(-c2nc(N3CCNCC3)nc3ccccc23)c(Cl)c1` (as salt: salt) [Example 61, 4-(2-Chloro-4-fluoro-phenyl)-2-piperazin-1-yl-quinazoline] showed a melting point of 248 to 251 °C. The same measure, in the same setting: then `c1ccc(-c2nc(N3CC4CNCC4C3)nc3ccccc23)cc1` (stereo not drawn) (as salt: salt) [Example 81, 2-(Hexahydro-pyrrolo[3,4-c]pyrrol-2-yl)-4-phenyl-quinazoline], with 267 to 270 °C; and `Cl.c1ccc(-c2nc(C3CCCNC3)nc3ccccc23)cc1` (stereo not drawn) (hydrate or solvate), with 231 to 232 °C. Regarding `CN1CCN(c2nc(-c3ccccc3)c3ccccc3n2)CC1` [Example 1, 2-(4-Methyl-piperazin-1-yl)-4-phenyl-quinazoline], the melting point was 101 to 122 °C. The same compound returned an inhibition constant Ki in data set [1] of 29.7 nM. The corresponding values for `Cc1ccc(-c2nc(N3CCN(C)CC3)nc3ccccc23)cc1` [Example 2, 2-(4-Methyl-piperazin-1-yl)-4-p-tolyl-quinazoline] are 85 to 87 °C and 77.3 nM.

In turn, `Cc1ccccc1-c1nc(N2CCN(C)CC2)nc2ccccc12` [Example 4, 2-(4-Methyl-piperazin-1-yl)-4-o-tolyl-quinazoline] displayed a melting point of 91 to 94 °C. Further, the Ki in data set [1] was determined as 34.1 nM. The corresponding values for `CN1CC2CCCC(C1)N2c1nc(-c2ccccc2)c2ccccc2n1` [Example 5, 2-(3-Methyl-3,9-diaza-bicyclo[3.3.1]non-9-yl)-4-phenyl-quinazoline] are 118 to 121 °C and 42 nM. On to `CC(C)c1nc(N2CCNCC2)nc2ccccc12.Cl` [Example 6, 4-Isopropyl-2-piperazin-1-yl-quinazoline hydrochloride], for which the melting point was in the range of 253 to 254 °C. The compound further had an inhibition constant (Ki) in data set [1] of 16.5 nM. In turn, `Cl.c1ccc(-c2nc(N3CCCNCC3)nc3ccccc23)cc1` [Example 7, 2-[1,4]Diazepan-1-yl-4-phenyl-quinazoline hydrochloride] gave a melting point of 230 to 231 °C. The compound further gave a Ki in data set [1] of 2 nM. The compound `CC(C)c1nc(N2CCCNCC2)nc2ccccc12.Cl` [Example 8, 2-[1,4]Diazepan-1-yl-4-isopropyl-quinazoline hydrochloride] yielded a melting point of 193 to 194 °C. Also, in data set [1], the inhibitory constant (Ki) stood at 4.8 nM. Regarding `CC1CN(c2nc(-c3ccccc3)c3ccccc3n2)C(C)CN1.Cl` (stereo not drawn) [Example 9, 2-(2,5-Dimethyl-piperazin-1-yl)-4-phenyl-quinazoline hydrochloride], the melting point was 221 to 222 °C. In data set [1], this compound came in with a Ki of 22 nM. `Cl.NCCC1CCCN(c2nc(-c3ccccc3)c3ccccc3n2)C1` (stereo not drawn) [Example 11, 2-[1-(4-Phenyl-quinazolin-2-yl)-piperidin-3-yl]-ethylamine hydrochloride] registered a melting point of 86 to 88 °C. In addition, the Ki in data set [1] came out at 80.5 nM. Turning to `CNC1CCN(c2nc(-c3ccc(F)cc3F)c3ccccc3n2)C1` (stereo not drawn) [Example 150, {1-[4-(2,4-Difluoro-phenyl)-quinazolin-2-yl]-pyrrolidin-3-yl}-methyl-amine], the Ki in data set [1] was 41.5 nM; in data set [2], 2700 nM. As for `CNC1CCN(c2nc(-c3c(F)cccc3F)c3ccccc3n2)CC1` [Example 151, {1-[4-(2,6-Difluoro-phenyl)-quinazolin-2-yl]-piperidin-4-yl}-methyl-amine], the results for the inhibitory constant (Ki) in data set [1] and in data set [2] were 384 nM and 5540 nM, respectively.

With `NCCCNc1nc(-c2ccc(F)cc2F)c2ccccc2n1` [Example 152, N1-[4-(2,4-Difluoro-phenyl)-quinazolin-2-yl]-propane-1,3-diamine], the inhibitory constant (Ki) in data set [1] was 25.8 nM; in data set [2], greater than 10000 nM. On to `CNC1CCN(c2nc(-c3ccc(F)cc3F)c3ccccc3n2)CC1` [Example 153, {1-[4-(2,4-Difluoro-phenyl)-quinazolin-2-yl]-piperidin-4-yl}-methyl-amine], for which the Ki in data set [1] was 150 nM; in data set [2] it was greater than 10000 nM. The corresponding values for `Fc1ccc(-c2nc(NC3CCNCC3)nc3ccccc23)c(F)c1` [Example 154, [4-(2,4-Difluoro-phenyl)-quinazolin-2-yl]-piperidin-4-yl-amine] are 58.1 nM and 5370 nM. Regarding `Fc1ccc(-c2nc(NCC3CCNC3)nc3ccccc23)c(F)c1` (stereo not drawn) [Example 155, [4-(2,4-Difluoro-phenyl)-quinazolin-2-yl]-pyrrolidin-3-ylmethyl-amine], the inhibitory constant (Ki) in data set [1] is 425 nM; in data set [2], greater than 10000 nM.

Regarding `Fc1cccc(-c2nc(NC3CCNCC3)nc3ccccc23)c1F` [Example 156, [4-(2,3-Difluoro-phenyl)-quinazolin-2-yl]-piperidin-4-yl-amine], the figures for the Ki in data set [1] and in data set [2] were 221 nM and 6980 nM, respectively. For `CNC1CCN(c2nc(-c3cccc(F)c3F)c3ccccc3n2)C1` (stereo not drawn) [Example 157, {1-[4-(2,3-Difluoro-phenyl)-quinazolin-2-yl]-pyrrolidin-3-yl}-methyl-amine], the Ki in data set [1] was 148 nM; in data set [2], 4250 nM. The corresponding values for `CNC1CCN(c2nc(-c3cccc(F)c3F)c3ccccc3n2)CC1` [Example 158] are 207 nM and 6030 nM. The corresponding values for `NCCCNc1nc(-c2cccc(F)c2F)c2ccccc2n1` [Example 159, N1-[4-(2,3-Difluoro-phenyl)-quinazolin-2-yl]-propane-1,3-diamine] are 123 nM and greater than 10000 nM. With `Fc1ccc2c(-c3ccccc3C(F)(F)F)nc(N3CCNCC3)nc2c1` [Example 160, 7-Fluoro-2-piperazin-1-yl-4-(2-trifluoromethyl-phenyl)-quinazoline], the Ki was found to be 60.7 nM in data set [1] and 976 nM in data set [2]. For `Fc1ccc(-c2nc(N3CCNCC3)c3ccccc3n2)c(F)c1` [Example 161, 2-(2,4-Difluoro-phenyl)-4-piperazin-1-yl-quinazoline], in that order: 3480 nM and 382 nM. With `Fc1ccc2c(-c3c(F)cccc3F)nc(C3CCNCC3)nc2c1` [Example 162, 4-(2,6-Difluoro-phenyl)-7-fluoro-2-piperidin-4-yl-quinazoline], the Ki was determined as 11.4 nM in data set [1] and 52.8 nM in data set [2]. `Fc1ccc2c(-c3ccccc3)nc(N3CCNCC3)nc2c1F` [Example 163, 7,8-Difluoro-4-phenyl-2-piperazin-1-yl-quinazoline]: the values for the inhibition constant (Ki) in data set [1] and in data set [2] were 12.6 nM and 441 nM, respectively.

For `CC[C@H]1CNCCN1c1nc(-c2c(F)cccc2F)c2ccccc2n1` [Example 164, S-4-(2,6-Difluoro-phenyl)-2-(2-ethyl-piperazin-1-yl)-quinazoline], the figures for the inhibition constant (Ki) in data set [1] and in data set [2] were 31.8 nM and 18 nM, respectively. For `CC[C@H]1CNCCN1c1nc(-c2ccc(F)cc2F)c2ccccc2n1` [Example 165, S-4-(2,4-Difluoro-phenyl)-2-(2-ethyl-piperazin-1-yl)-quinazoline], in that order: 31 nM and 14.4 nM. For `CC(C)[C@H]1CNCCN1c1nc(-c2cccc(F)c2F)c2ccccc2n1` [Example 166, S-4-(2,3-Difluoro-phenyl)-2-(2-isopropyl-piperazin-1-yl)-quinazoline], in that order: 79.7 nM and 185 nM. For `CC(C)[C@H]1CNCCN1c1nc(-c2ccc(F)cc2F)c2ccccc2n1` [Example 167, S-4-(2,4-Difluoro-phenyl)-2-(2-isopropyl-piperazin-1-yl)-quinazoline], in that order: 66.1 nM and 68.8 nM. Take “R-4-(2,4-Difluoro-phenyl)-7-fluoro-2-(2-methyl-piperazin-1-yl)-quinazoline [Example 138]”: the Ki in data set [1] worked out at 35.4 nM; in data set [2], 24.6 nM. The corresponding values for “S-4-(2,4-Difluoro-phenyl)-7-fluoro-2-(2-methyl-piperazin-1-yl)-quinazoline [Example 139]” are 30.7 nM and 24.9 nM. The corresponding values for “S-[4-(2,4-Difluoro-phenyl)-7-fluoro-quinazolin-2-yl]-pyrrolidin-3-yl-amine [Example 144]” are 23.4 nM and 26.5 nM.
